Results from patent publication US10357589B2, “One component fibrin glue comprising a polymerization inhibitor” (Omrix Biopharmaceuticals Ltd., priority 2013, dated 2019).
Entries after “also recorded” stand apart in the source; their conditions may differ.

How the values were obtained:
fibrin monomers [1] = assay: Time to clot of GPRP peptide:fibrin monomers mixture (cessation of flow when inverting the tube); assay type: biochemical
Method: A mixture of GPRP peptide:fibrin monomers was prepared as follows:
Fibrinogen final concentration used was 1%, 1.5%, 3%, 3.5%. A BAC2 solution [fibrinogen component of EVICEL®] containing 7% clottable fibrinogen was diluted in 20 mM sodium acetate (NaAcetate) buffer, pH 7.0 to obtain the final listed concentrations.
To form fibrin, thrombin (as in EVICEL® Fibrin Sealant) was added to the fibrinogen solution at a final concentration of 10 IU/ml or 100 IU/ml and then the time to clot was recorded. Clotting was assessed by cessation of flow when inverting the tube.
The fibrin monomer concentration was estimated as being equal to the fibrinogen concentration.
All of these (having a ratio of at most 57:1) are below the minimal ratio required for long term stabilization of fibrin monomers. The GPRP:fibrin solution was prepared as described above (by adding a GPRP peptide into a fibrinogen solution and adding thrombin into the GPRP:fibrinogen mix). Next, the time to clotting was recorded as above.

fibrin monomers [2] = assay: as above; assay type: biochemical; conditions: 1% fibrin monomers, thrombin 10 or 100 IU/ml

Q: With Gly-Pro-Arg-Pro [GPRP] as the substance, how does the Time to clot (fibrin monomers [1]; 1% fibrin monomers, 0.1 mM GPRP, GPRP:fibrin 3.4 fold, thrombin 10 or 100 IU/ml) read?
A: The Time to clot was “immediately; also recorded: Immediate”.

Q: And the Time to clot (fibrin monomers [1]; 3% fibrin monomers, 0.1 mM GPRP, GPRP:fibrin 1.1 fold)?
A: Its Time to clot is 5 s.

Q: What about the Time to clot (fibrin monomers [1]; 3% fibrin monomers, 0.2 mM GPRP, GPRP:fibrin 2.3 fold) of the same substance?
A: Its Time to clot is 7 s.

Q: What about the Time to clot (fibrin monomers [1]; 3% fibrin monomers, 0.5 mM GPRP, GPRP:fibrin 5.7 fold) of the same substance?
A: Its Time to clot is 11 s.

Q: What about the Time to clot (fibrin monomers [1]; 3% fibrin monomers, 1 mM GPRP, GPRP:fibrin 11.3 fold) of the same substance?
A: The Time to clot was 13 s.

Q: And the Time to clot (fibrin monomers [1]; 3% fibrin monomers, 1.5 mM GPRP, GPRP:fibrin 17 fold)?
A: Its Time to clot is 22 s.

Q: And the Time to clot (fibrin monomers [1]; 3% fibrin monomers, 2 mM GPRP, GPRP:fibrin 22.7 fold)?
A: Its Time to clot is 28 s.

Q: What about the Time to clot (fibrin monomers [1]; 3% fibrin monomers, 3 mM GPRP, GPRP:fibrin 34 fold) of the same substance?
A: Its Time to clot is 150 s.

Q: And the Time to clot (fibrin monomers [1]; 3% fibrin monomers, 4 mM GPRP, GPRP:fibrin 45 fold)?
A: The Time to clot was 480 s.

Q: What about the Time to clot (fibrin monomers [1]; 3% fibrin monomers, 5 mM GPRP, GPRP:fibrin 56.7 fold) of the same substance?
A: The Time to clot was 900 s.

Q: What about the Time to clot (fibrin monomers [2]; 5 mM GPRP, GPRP:fibrin 170 fold) of the same substance?
A: The Time to clot was 4 h.

Q: What about the Time to clot (fibrin monomers [2]; 10 mM GPRP, GPRP:fibrin 340 fold) of the same substance?
A: Its Time to clot is 170 to 190 h.
